Assays:
Assay type in all cases: in vivo
[1] = test system: flowering Arabidopsis thaliana plants; test: visual fluorescent pollen transgene assay, crossover frequency in interval I2a (chromosome 2)
[2] = test system: flowering Arabidopsis thaliana plants; test: visual fluorescent pollen transgene assay, crossover frequency in interval I2b (chromosome 2); settings: for NPD (Nonparental Ditype pollen tetrads) / PD (Parental Ditype pollen tetrads) / TT (Tetratype pollen tetrads) / genetic map distance: 0.01% Silwet in water, Exp.(1); for genetic map distance: Water control 5.11 cM
[3] = test system: flowering Arabidopsis thaliana plants; test: visual fluorescent pollen transgene assay, crossover frequency in interval I5d (chromosome 5)
Method: An aqueous solution of 3-aminobutanoic acid was applied to flowering Arabidopsis thaliana plants to enhance the frequency of meiotic recombination (crossovers). Silwet, a spraying adjuvant, was added to the 3-aminobutanoic acid solution at a volume/volume concentration of 0.01%. The solution was applied to the plants by foliar spraying until the plants were drenched. Several concentrations of 3-aminobutanoic acid were used including 0.1, 1, 7.5, 10, 12.5 and 15 mM. As a control, other plants (i.e., control plants) were treated with an aqueous 0.01% solution of Silwet by foliar spraying the solution on the plants until the plants were drenched.
(§1) Crossover frequencies were measured in pollen from treated and control plants using a visual fluorescent pollen transgene assay as described in Francis et al., Proc Natl Acad Sci USA. 2007; 104 (10): 3913-3918. In this assay pollen tetrads are scored as Parental Ditype (PD), Nonparental Ditype (NPD) or Tetratype (TT) and the frequency of those tetrad classes are used to calculate a genetic map distances in centiMorgans (cM) between reporter genes expressing fluorescent proteins. The genetic map distances between a pair of markers on chromosome 5 were compared between control plants and treated plants. The genetic interval between the two markers was designated as I5d. […] In Table 2, each experimental treatment is paired with data from control plants that were treated and scored together and designated with an experiment number in the first column.
An aqueous solution phenethyl isothiocyanate (IUPAC name: 2-isothiocyanatoethylbenzene) was applied to flowering Arabidopsis thaliana plants to enhance the frequency of meiotic recombination (crossovers). Phenethyl isothiocyanate in an aqueous solution containing 10% DMSO and 0.01% Silwet was applied by foliar spray until the plants were drenched. The phenethyl isothiocyanate was first dissolved in 100% DMSO and then diluted to its final concentration with 0.0.1% Silwet in water. Several concentrations of phenethyl isothiocyanate were used including 7.5, 10, and 12.5 mM. Control plants were treated with an aqueous solution of 10% DMSO and 0.01% Silwet by foliar spraying the solution on the control plants until the control plants were drenched.
as §1, with “4,” for “2,”
An aqueous solution BIX-01294 (IUPAC name: N-(1-benzylpiperidin-4-yl)-6,7-dimethoxy-2-(4-methyl-1,4-diazepan-1-yl) quinazolin-4-amine) was applied to flowering Arabidopsis thaliana plants to enhance the frequency of meiotic recombination (crossovers). BIX-01294 in an aqueous solution containing 10% DMSO and 0.01% Silwet was applied by foliar spray until the plants were drenched. The BIX-01294 was first dissolved in 100% DMSO and then diluted to its final concentration with 0.0.1% Silwet in water. Several concentrations of […] were used including 0.5, 1, 2.5 and 5 mM. Control plants were treated with an aqueous solution of 10% DMSO and 0.01% Silwet by foliar spraying the solution on the control plants until the control plants were drenched. […]

[4] = 2.5 mM foliar spray, Example 4, Exp.(1)
[5] = 7.5 mM foliar spray, Example 4, Exp.(1)
[6] = 10 mM foliar spray, Example 4, Exp.(1)
[7] = 0.1 mM foliar spray, 0.01% Silwet in water, Exp.(1)
[8] = 1 mM foliar spray, 0.01% Silwet in water, Exp.(2)
[9] = 10 mM foliar spray, 0.01% Silwet in water, Exp.(1)
[10] = 12.5 mM foliar spray, 0.01% Silwet in water, Exp.(3)
[11] = 15 mM foliar spray, 0.01% Silwet in water, Exp.(3)
[12] = 0.1 mM foliar spray, 10% DMSO and 0.01% Silwet, Exp.(1)
[13] = 0.5 mM foliar spray, 10% DMSO and 0.01% Silwet, Exp.(1)
[14] = 1 mM foliar spray, 10% DMSO and 0.01% Silwet, Exp.(1)
[15] = 2.5 mM foliar spray, 10% DMSO and 0.01% Silwet, Exp.(2)
[16] = 5 mM foliar spray, 10% DMSO and 0.01% Silwet, Exp.(2)
[17] = 1 mM foliar spray, 10% DMSO and 0.01% Silwet, Exp.(2)
[18] = 2.5 mM foliar spray, 10% DMSO and 0.01% Silwet, Exp.(3)
[19] = 5 mM foliar spray, 10% DMSO and 0.01% Silwet, Exp.(3)

## CC(N)CC(=O)O (stereo not shown) [3-aminobutanoic acid]
[1]; [4]
  NPD (Nonparental Ditype pollen tetrads): 0
  PD (Parental Ditype pollen tetrads): 924
  TT (Tetratype pollen tetrads): 67
[1]; 2.5 mM foliar spray, Example 4, Exp.(1), DMSO control 2.32 cM, p-value 0.021
  genetic map distance: 3.38 cM
[1]; [5]
  NPD (Nonparental Ditype pollen tetrads): 0
  PD (Parental Ditype pollen tetrads): 914
  TT (Tetratype pollen tetrads): 66
[1]; 7.5 mM foliar spray, Example 4, Exp.(1), DMSO control 2.32 cM, p-value 0.023
  genetic map distance: 3.37 cM
[1]; [6]
  NPD (Nonparental Ditype pollen tetrads): 0
  PD (Parental Ditype pollen tetrads): 941
  TT (Tetratype pollen tetrads): 60
[1]; 10 mM foliar spray, Example 4, Exp.(1), DMSO control 2.32 cM, p-value 0.090
  genetic map distance: 3.00 cM
[1]; Example 4, 2.5 and 7.5 mM, two of three concentrations (not 10 mM)
  meiotic recombination in treated plants compared to control plants: increased meiotic recombination
[2]; 7.5 mM foliar spray
  NPD (Nonparental Ditype pollen tetrads): 3
  PD (Parental Ditype pollen tetrads): 867
  TT (Tetratype pollen tetrads): 128
[2]; 7.5 mM foliar spray, p-value 0.006
  genetic map distance: 7.31 cM
[2]; 10 mM foliar spray
  NPD (Nonparental Ditype pollen tetrads): 1
  PD (Parental Ditype pollen tetrads): 866
  TT (Tetratype pollen tetrads): 140
[2]; 10 mM foliar spray, p-value 0.003
  genetic map distance: 7.25 cM
[2]; 12.5 mM foliar spray
  NPD (Nonparental Ditype pollen tetrads): 0
  PD (Parental Ditype pollen tetrads): 865
  TT (Tetratype pollen tetrads): 155
[2]; 12.5 mM foliar spray, p-value 0.000
  genetic map distance: 7.60 cM
[2]; all three concentrations (7.5, 10, 12.5 mM)
  meiotic recombination in treated plants compared to control plants: increased meiotic recombination
[3]; [7]
  NPD (Nonparental Ditype pollen tetrads): 0
  PD (Parental Ditype pollen tetrads): 926
  TT (Tetratype pollen tetrads): 178
[3]; 0.1 mM foliar spray, 0.01% Silwet in water, Exp.(1), Water control 5.89 cM, p-value 0.002
  genetic map distance: 8.06 cM
[3]; [8]
  NPD (Nonparental Ditype pollen tetrads): 0
  PD (Parental Ditype pollen tetrads): 983
  TT (Tetratype pollen tetrads): 169
[3]; 1 mM foliar spray, 0.01% Silwet in water, Exp.(2), Water control 5.37 cM, p-value 0.003
  genetic map distance: 7.34 cM
[3]; [9]
  NPD (Nonparental Ditype pollen tetrads): 0
  PD (Parental Ditype pollen tetrads): 1092
  TT (Tetratype pollen tetrads): 221
[3]; 10 mM foliar spray, 0.01% Silwet in water, Exp.(1), Water control 5.89 cM, p-value 0.000
  genetic map distance: 8.42 cM
[3]; [10]
  NPD (Nonparental Ditype pollen tetrads): 4
  PD (Parental Ditype pollen tetrads): 908
  TT (Tetratype pollen tetrads): 166
[3]; 12.5 mM foliar spray, 0.01% Silwet in water, Exp.(3), Water control 5.50 cM, p-value 0.000
  genetic map distance: 8.81 cM
[3]; [11]
  NPD (Nonparental Ditype pollen tetrads): 2
  PD (Parental Ditype pollen tetrads): 849
  TT (Tetratype pollen tetrads): 160
[3]; 15 mM foliar spray, 0.01% Silwet in water, Exp.(3), Water control 5.50 cM, p-value 0.000
  genetic map distance: 8.51 cM
[3]; all concentrations (Table 2: 0.1, 1, 10, 12.5, 15 mM)
  meiotic recombination in treated plants compared to controls: increase meiotic recombination

## COc1cc2nc(N3CCCN(C)CC3)nc(NC3CCN(Cc4ccccc4)CC3)c2cc1OC [BIX-01294, N-(1-benzylpiperidin-4-yl)-6,7-dimethoxy-2-(4-methyl-1,4-diazepan-1-yl) quinazolin-4-amine]
[1]; [12]
  NPD (Nonparental Ditype pollen tetrads): 0
  PD (Parental Ditype pollen tetrads): 908
  TT (Tetratype pollen tetrads): 59
[1]; 0.1 mM foliar spray, 10% DMSO and 0.01% Silwet, Exp.(1), DMSO control 2.19 cM, p-value 0.046
  genetic map distance: 3.05 cM
[1]; [13]
  NPD (Nonparental Ditype pollen tetrads): 0
  PD (Parental Ditype pollen tetrads): 922
  TT (Tetratype pollen tetrads): 84
[1]; 0.5 mM foliar spray, 10% DMSO and 0.01% Silwet, Exp.(1), DMSO control 2.19 cM, p-value 0.000
  genetic map distance: 4.17 cM
[1]; [14]
  NPD (Nonparental Ditype pollen tetrads): 0
  PD (Parental Ditype pollen tetrads): 988
  TT (Tetratype pollen tetrads): 99
[1]; 1 mM foliar spray, 10% DMSO and 0.01% Silwet, Exp.(1), DMSO control 2.19 cM, p-value 0.000
  genetic map distance: 4.55 cM
[1]; [15]
  NPD (Nonparental Ditype pollen tetrads): 0
  PD (Parental Ditype pollen tetrads): 777
  TT (Tetratype pollen tetrads): 55
[1]; 2.5 mM foliar spray, 10% DMSO and 0.01% Silwet, Exp.(2), DMSO control 2.75 cM, p-value 0.163
  genetic map distance: 3.31 cM
[1]; [16]
  NPD (Nonparental Ditype pollen tetrads): 0
  PD (Parental Ditype pollen tetrads): 836
  TT (Tetratype pollen tetrads): 43
[1]; 5 mM foliar spray, 10% DMSO and 0.01% Silwet, Exp.(2), DMSO control 2.75 cM, p-value 0.725
  genetic map distance: 2.45 cM
[1]; 0.1, 0.5 and 1 mM, three of five concentrations (not 2.5, 5 mM)
  meiotic recombination in treated plants compared to control plants: increased meiotic recombination
[3]; [13]
  NPD (Nonparental Ditype pollen tetrads): 1
  PD (Parental Ditype pollen tetrads): 936
  TT (Tetratype pollen tetrads): 185
[3]; 0.5 mM foliar spray, 10% DMSO and 0.01% Silwet, Exp.(1), DMSO control 6.04 cM, p-value 0.001
  genetic map distance: 8.51 cM
[3]; [17]
  NPD (Nonparental Ditype pollen tetrads): 0
  PD (Parental Ditype pollen tetrads): 829
  TT (Tetratype pollen tetrads): 131
[3]; 1 mM foliar spray, 10% DMSO and 0.01% Silwet, Exp.(2), DMSO control 6.73 cM, p-value 0.454
  genetic map distance: 6.82 cM
[3]; [18]
  NPD (Nonparental Ditype pollen tetrads): 5
  PD (Parental Ditype pollen tetrads): 888
  TT (Tetratype pollen tetrads): 169
[3]; 2.5 mM foliar spray, 10% DMSO and 0.01% Silwet, Exp.(3), DMSO control 5.31 cM, p-value 0.000
  genetic map distance: 9.37 cM
[3]; [19]
  NPD (Nonparental Ditype pollen tetrads): 4
  PD (Parental Ditype pollen tetrads): 938
  TT (Tetratype pollen tetrads): 156
[3]; 5 mM foliar spray, 10% DMSO and 0.01% Silwet, Exp.(3), DMSO control 5.31 cM, p-value 0.001
  genetic map distance: 8.20 cM
[3]; 0.5, 2.5 and 5 mM, three of four concentrations (not 1 mM)
  meiotic recombination in treated plants compared to controls: increase meiotic recombination

— US20250160275A1, “COMPOUNDS FOR MODIFYING MEIOTIC RECOMBINATION AND METHODS RELATING THERETO” (The University of North Carolina at Chapel Hill, priority 2022, published 2025)
